Measured values from paper PMC13210772, “Dual FLT3/MAPK14 Proteolysis-Targeting Chimera (PROTAC) Induces Potent Acute Myeloid Leukemia Cell Death” (Pharmaceuticals, 2026).

How the values were obtained:
Experiment in all cases: NanoBRET CELLinib128
Type in all cases: binding
AURKA = molecular target: T1, AURKA (Homo sapiens, UniProt O14965); details: 100% no effect, 0% complete tracer displacement, read-out: Tracer bound
T1 construct: Full-length kinase ORF (Promega, Madison, WI, USA) cloned in frame with a NanoLuc-vector was transfected into HEK293T cells; host or cells: HEK293T
Experimental: (§1) To get an impression about the binding strength of the PROTAC MA191 and the reference inhibitor MA68 to other kinases besides FLT3-ITD the binding on a kinase panel of further 128 representative protein kinases at 1 μM concentration was tested using the NanoBRET^TM cellular target engagement assay (CELLinib128 assay, CELLinib GmbH, Frankfurt, Germany). […] In none of the 128 kinases MA191 was able to displace the tracer (inhibitor) used by more than 50%, Table S1, Supplementary Information).
(§2) The CELLinib128 assay was performed by CELLinib GmbH, Frankfurt (Germany) as described previously. In brief: Full-length kinase ORF (Promega, Madison, WI, USA) cloned in frame with a NanoLuc-vector was transfected into HEK293T cells in Opti-MEM without phenol red (Life Technologies, Carlsbad, CA, USA) at a density of 2 × 10^5 cells/mL using FuGENE HD (Promega, E2312) and proteins were allowed to express for 20 h. For CDKs, where indicated below, an excess of an activator without an NLuc-fusion was cotransfected. […] The system was allowed to equilibrate at 37 °C for 2 h and 5% CO2 prior to BRET measurements. For PKCs, a chemical activator PMA was added in a final concentration of 1 µM was added together with test compounds and tracers (Promega, V1171). To measure BRET, NanoBRET^TM NanoGlo substrate + extracellular NanoLuc inhibitor (Promega, N2160) were added as per the manufacturer’s protocol, and filtered luminescence was measured (450 nm BP filter (donor) and 610 nm LP filter (acceptor)). For the 1-shot test compounds, data were normalized to the tracer control and the background control or control compound plateau and an average and SD were calculated. […] For the control compounds competitive displacement data were normalized to the tracer Ctrl and the background Ctrl and then plotted and fitted using GraphPad Prism 10 software using a normalized 3-parameter curve fit with the following equation: Y = 100/(1 + 10^X−LogIC50).

NUAK1 = molecular target: T2, NUAK1 (Homo sapiens, UniProt O60285); details: 1 µM; 100% no effect, 0% complete tracer displacement
T2 construct: Full-length kinase ORF (Promega, Madison, WI, USA) cloned in frame with a NanoLuc-vector was transfected into HEK293T cells; host or cells: HEK293T
T2 sequence (O60285 whole entry): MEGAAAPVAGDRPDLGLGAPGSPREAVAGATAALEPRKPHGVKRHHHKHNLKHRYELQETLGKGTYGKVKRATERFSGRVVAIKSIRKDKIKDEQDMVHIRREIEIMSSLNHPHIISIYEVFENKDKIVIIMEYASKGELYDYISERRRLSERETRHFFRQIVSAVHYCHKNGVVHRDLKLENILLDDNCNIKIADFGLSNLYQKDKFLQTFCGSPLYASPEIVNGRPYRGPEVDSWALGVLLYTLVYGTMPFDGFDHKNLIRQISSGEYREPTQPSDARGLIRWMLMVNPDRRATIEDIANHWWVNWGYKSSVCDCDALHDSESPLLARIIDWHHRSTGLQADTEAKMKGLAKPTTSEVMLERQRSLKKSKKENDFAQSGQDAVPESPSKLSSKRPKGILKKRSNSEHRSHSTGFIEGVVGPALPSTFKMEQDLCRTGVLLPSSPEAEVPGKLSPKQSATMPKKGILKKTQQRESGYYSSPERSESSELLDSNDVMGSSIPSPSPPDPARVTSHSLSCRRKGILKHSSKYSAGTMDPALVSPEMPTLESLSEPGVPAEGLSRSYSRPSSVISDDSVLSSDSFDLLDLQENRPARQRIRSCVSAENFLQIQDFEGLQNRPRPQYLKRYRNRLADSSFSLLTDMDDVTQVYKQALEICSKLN
Experimental: as §1, §2

MAP4K5 = molecular target: T3, MAP4K5 (Homo sapiens, UniProt Q9Y4K4); details: 100% no effect, 0% complete tracer displacement, read-out: Tracer bound
T3 construct: Full-length kinase ORF (Promega, Madison, WI, USA) cloned in frame with a NanoLuc-vector was transfected into HEK293T cells; host or cells: HEK293T
Experimental: as §1, §2

MLTK = molecular target: T4, MLTK (Homo sapiens, UniProt Q9NYL2); details: 100% no effect, 0% complete tracer displacement, read-out: Tracer bound
T4 construct: Full-length kinase ORF (Promega, Madison, WI, USA) cloned in frame with a NanoLuc-vector was transfected into HEK293T cells; host or cells: HEK293T
Experimental: as §1, §2

BTK = molecular target: T5, BTK (Homo sapiens, UniProt Q06187); details: 1 µM; 100% no effect, 0% complete tracer displacement
T5 construct: Full-length kinase ORF (Promega, Madison, WI, USA) cloned in frame with a NanoLuc-vector was transfected into HEK293T cells; host or cells: HEK293T
Experimental: as §1, §2

CDK14-CCNY = molecular target: T6, CDK14-CCNY (Homo sapiens, UniProt O94921); details: 1 µM; 100% no effect, 0% complete tracer displacement
T6 construct: Full-length kinase ORF (Promega, Madison, WI, USA) cloned in frame with a NanoLuc-vector was transfected into HEK293T cells; host or cells: HEK293T
Experimental: as §1, §2

TNK2 = molecular target: T7, TNK2 (Homo sapiens, UniProt Q07912); details: 100% no effect, 0% complete tracer displacement, read-out: Tracer bound
T7 construct: Full-length kinase ORF (Promega, Madison, WI, USA) cloned in frame with a NanoLuc-vector; host or cells: HEK293T
T7 sequence (Q07912 whole entry): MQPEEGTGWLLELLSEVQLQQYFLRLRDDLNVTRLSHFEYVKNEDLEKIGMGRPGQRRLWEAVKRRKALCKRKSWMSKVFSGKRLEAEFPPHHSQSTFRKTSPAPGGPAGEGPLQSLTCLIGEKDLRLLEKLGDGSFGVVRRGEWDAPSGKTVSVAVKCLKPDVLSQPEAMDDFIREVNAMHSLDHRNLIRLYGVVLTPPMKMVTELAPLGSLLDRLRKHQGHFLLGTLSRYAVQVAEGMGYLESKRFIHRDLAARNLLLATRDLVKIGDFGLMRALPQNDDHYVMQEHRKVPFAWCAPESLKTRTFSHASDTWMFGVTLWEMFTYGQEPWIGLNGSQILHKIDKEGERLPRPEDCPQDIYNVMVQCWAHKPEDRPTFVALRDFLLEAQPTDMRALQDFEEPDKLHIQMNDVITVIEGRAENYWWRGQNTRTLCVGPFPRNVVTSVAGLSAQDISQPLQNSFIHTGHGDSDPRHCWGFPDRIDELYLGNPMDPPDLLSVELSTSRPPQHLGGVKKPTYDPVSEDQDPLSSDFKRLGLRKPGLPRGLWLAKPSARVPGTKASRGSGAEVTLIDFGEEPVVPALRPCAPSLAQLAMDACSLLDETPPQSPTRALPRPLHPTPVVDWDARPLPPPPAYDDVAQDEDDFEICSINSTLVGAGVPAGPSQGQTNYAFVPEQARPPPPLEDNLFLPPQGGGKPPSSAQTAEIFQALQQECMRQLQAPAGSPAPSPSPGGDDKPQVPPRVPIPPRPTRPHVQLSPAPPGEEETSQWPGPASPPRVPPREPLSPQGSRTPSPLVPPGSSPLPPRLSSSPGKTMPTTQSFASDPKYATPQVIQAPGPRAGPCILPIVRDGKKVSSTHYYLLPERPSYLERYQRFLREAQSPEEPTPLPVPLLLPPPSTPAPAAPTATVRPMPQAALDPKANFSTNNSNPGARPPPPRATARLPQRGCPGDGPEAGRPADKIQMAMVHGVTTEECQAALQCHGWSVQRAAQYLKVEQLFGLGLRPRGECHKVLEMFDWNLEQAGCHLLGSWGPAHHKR
Experimental: as §1, §2

MAP4K3 = molecular target: T8, MAP4K3 (Homo sapiens, UniProt Q8IVH8); details: 1 µM; 100% no effect, 0% complete tracer displacement
T8 construct: Full-length kinase ORF (Promega, Madison, WI, USA) cloned in frame with a NanoLuc-vector was transfected into HEK293T cells; host or cells: HEK293T
Experimental: as §1, §2

IRAK4 = molecular target: T9, IRAK4 (Homo sapiens, UniProt Q9NWZ3); details: 1 µM; 100% no effect, 0% complete tracer displacement
T9 construct: Full-length kinase ORF (Promega, Madison, WI, USA) cloned in frame with a NanoLuc-vector was transfected into HEK293T cells; host or cells: HEK293T
T9 sequence (Q9NWZ3 whole entry): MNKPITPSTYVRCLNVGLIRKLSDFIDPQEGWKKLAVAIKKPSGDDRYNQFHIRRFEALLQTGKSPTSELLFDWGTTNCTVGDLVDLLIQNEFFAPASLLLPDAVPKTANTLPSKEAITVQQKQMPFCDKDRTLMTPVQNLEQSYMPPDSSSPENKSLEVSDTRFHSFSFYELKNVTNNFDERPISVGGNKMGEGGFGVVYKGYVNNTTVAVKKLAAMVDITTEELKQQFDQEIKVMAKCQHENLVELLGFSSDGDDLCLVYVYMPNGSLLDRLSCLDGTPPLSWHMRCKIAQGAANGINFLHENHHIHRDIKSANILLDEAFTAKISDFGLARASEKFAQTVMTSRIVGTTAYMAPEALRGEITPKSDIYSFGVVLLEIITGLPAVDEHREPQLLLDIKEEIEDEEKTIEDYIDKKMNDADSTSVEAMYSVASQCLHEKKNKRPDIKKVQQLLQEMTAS
Experimental: as §1, §2

PAK6 = molecular target: T10, PAK6 (Homo sapiens, UniProt Q9NQU5); details: 100% no effect, 0% complete tracer displacement, read-out: Tracer bound
T10 construct: Full-length kinase ORF (Promega, Madison, WI, USA) cloned in frame with a NanoLuc-vector was transfected into HEK293T cells; host or cells: HEK293T
Experimental: as §1, §2

PRKAA2 = molecular target: T11, PRKAA2 (Homo sapiens, UniProt P54646); details: 100% no effect, 0% complete tracer displacement, read-out: Tracer bound
T11 construct: Full-length kinase ORF (Promega, Madison, WI, USA) cloned in frame with a NanoLuc-vector was transfected into HEK293T cells; host or cells: HEK293T
Experimental: as §1, §2

CSNK2A2 = molecular target: T12, CSNK2A2 (Homo sapiens, UniProt P19784); details: 100% no effect, 0% complete tracer displacement, read-out: Tracer bound
T12 construct: Full-length kinase ORF (Promega, Madison, WI, USA) cloned in frame with a NanoLuc-vector was transfected into HEK293T cells; host or cells: HEK293T
Experimental: as §1, §2

CDK20-CCNH = molecular target: T13, CDK20-CCNH (Homo sapiens, UniProt Q8IZL9); details: 100% no effect, 0% complete tracer displacement, read-out: Tracer bound
T13 construct: Full-length kinase ORF (Promega, Madison, WI, USA) cloned in frame with a NanoLuc-vector was transfected into HEK293T cells; host or cells: HEK293T
Experimental: as §1, §2

MAP4K2 = molecular target: T14, MAP4K2 (Homo sapiens, UniProt Q12851); details: 100% no effect, 0% complete tracer displacement, read-out: Tracer bound
T14 construct: Full-length kinase ORF (Promega, Madison, WI, USA) cloned in frame with a NanoLuc-vector was transfected into HEK293T cells; host or cells: HEK293T
T14 sequence (Q12851 whole entry): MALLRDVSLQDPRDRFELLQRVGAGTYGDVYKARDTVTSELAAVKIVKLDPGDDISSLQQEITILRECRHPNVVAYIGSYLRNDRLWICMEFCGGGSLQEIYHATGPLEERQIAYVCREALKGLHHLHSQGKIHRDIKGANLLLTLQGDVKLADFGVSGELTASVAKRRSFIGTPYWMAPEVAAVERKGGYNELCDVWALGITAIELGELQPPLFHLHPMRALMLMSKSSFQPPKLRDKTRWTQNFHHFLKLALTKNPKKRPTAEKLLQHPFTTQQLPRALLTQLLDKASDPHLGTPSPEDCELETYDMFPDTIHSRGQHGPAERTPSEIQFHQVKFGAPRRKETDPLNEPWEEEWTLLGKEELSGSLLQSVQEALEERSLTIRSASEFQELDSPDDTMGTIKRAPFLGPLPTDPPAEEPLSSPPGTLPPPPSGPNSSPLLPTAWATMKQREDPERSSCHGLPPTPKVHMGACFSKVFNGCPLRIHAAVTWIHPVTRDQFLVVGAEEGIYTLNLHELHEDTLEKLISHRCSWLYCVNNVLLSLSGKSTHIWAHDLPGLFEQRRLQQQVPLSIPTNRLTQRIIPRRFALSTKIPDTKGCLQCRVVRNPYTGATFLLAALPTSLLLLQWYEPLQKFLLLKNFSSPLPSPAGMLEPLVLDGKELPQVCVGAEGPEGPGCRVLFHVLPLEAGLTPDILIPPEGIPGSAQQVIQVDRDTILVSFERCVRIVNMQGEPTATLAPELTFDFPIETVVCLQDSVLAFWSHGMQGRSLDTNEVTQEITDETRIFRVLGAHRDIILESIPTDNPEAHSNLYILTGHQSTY
Experimental: as §1, §2

CDK3-CCNE1 = molecular target: T15, CDK3-CCNE1 (Homo sapiens, UniProt Q00526); details: 1 µM; 100% no effect, 0% complete tracer displacement
T15 construct: Full-length kinase ORF (Promega, Madison, WI, USA) cloned in frame with a NanoLuc-vector was transfected into HEK293T cells; host or cells: HEK293T
Experimental: as §1, §2

RPS6KA1 = molecular target: T16, RPS6KA1 (Homo sapiens, UniProt Q15418); details: 100% no effect, 0% complete tracer displacement, read-out: Tracer bound
T16 construct: Full-length kinase ORF (Promega, Madison, WI, USA) cloned in frame with a NanoLuc-vector was transfected into HEK293T cells; host or cells: HEK293T
Experimental: as §1, §2

RIOK2 = molecular target: T17, RIOK2 (Homo sapiens, UniProt Q9BVS4); details: 100% no effect, 0% complete tracer displacement, read-out: Tracer bound
T17 construct: Full-length kinase ORF (Promega, Madison, WI, USA) cloned in frame with a NanoLuc-vector was transfected into HEK293T cells; host or cells: HEK293T
T17 sequence (Q9BVS4 whole entry): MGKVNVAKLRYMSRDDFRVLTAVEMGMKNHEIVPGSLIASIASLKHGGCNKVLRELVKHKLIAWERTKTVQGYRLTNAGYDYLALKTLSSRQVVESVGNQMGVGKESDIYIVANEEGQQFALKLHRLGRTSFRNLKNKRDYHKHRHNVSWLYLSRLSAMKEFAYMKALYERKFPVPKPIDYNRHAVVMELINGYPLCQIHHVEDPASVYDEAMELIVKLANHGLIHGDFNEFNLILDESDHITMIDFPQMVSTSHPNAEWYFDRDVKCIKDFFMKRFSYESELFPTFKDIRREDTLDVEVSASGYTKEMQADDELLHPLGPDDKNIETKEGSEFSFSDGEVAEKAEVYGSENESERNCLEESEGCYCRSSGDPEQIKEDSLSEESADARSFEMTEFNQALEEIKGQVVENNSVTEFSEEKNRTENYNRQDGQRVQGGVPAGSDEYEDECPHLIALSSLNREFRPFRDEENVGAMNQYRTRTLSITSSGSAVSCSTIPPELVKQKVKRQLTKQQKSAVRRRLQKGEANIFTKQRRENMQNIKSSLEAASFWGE
Experimental: as §1, §2

STK38L = molecular target: T18, STK38L (Homo sapiens, UniProt Q9Y2H1); details: 100% no effect, 0% complete tracer displacement, read-out: Tracer bound
T18 construct: Full-length kinase ORF (Promega, Madison, WI, USA) cloned in frame with a NanoLuc-vector was transfected into HEK293T cells; host or cells: HEK293T
Experimental: as §1, §2

STK4 = molecular target: T19, STK4 (Homo sapiens, UniProt Q13043); details: 1 µM; 100% no effect, 0% complete tracer displacement
T19 construct: Full-length kinase ORF (Promega, Madison, WI, USA) cloned in frame with a NanoLuc-vector was transfected into HEK293T cells; host or cells: HEK293T
T19 sequence (Q13043 whole entry): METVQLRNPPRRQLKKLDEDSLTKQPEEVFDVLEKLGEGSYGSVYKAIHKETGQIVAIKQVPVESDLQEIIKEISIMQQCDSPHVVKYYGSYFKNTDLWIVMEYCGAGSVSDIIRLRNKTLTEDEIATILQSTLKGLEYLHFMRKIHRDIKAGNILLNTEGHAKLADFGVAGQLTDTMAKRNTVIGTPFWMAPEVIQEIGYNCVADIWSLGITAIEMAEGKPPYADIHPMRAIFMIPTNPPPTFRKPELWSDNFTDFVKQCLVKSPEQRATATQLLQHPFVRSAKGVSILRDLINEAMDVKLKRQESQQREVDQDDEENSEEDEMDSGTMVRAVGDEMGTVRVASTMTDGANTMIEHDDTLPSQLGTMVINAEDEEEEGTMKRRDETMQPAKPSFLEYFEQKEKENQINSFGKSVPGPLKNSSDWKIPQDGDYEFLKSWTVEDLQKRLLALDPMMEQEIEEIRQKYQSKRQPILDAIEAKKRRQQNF
Experimental: as §1, §2

TBK1 = molecular target: T20, TBK1 (Homo sapiens, UniProt Q9UHD2); details: 100% no effect, 0% complete tracer displacement, read-out: Tracer bound
T20 construct: Full-length kinase ORF (Promega, Madison, WI, USA) cloned in frame with a NanoLuc-vector was transfected into HEK293T cells; host or cells: HEK293T
T20 sequence (Q9UHD2 whole entry): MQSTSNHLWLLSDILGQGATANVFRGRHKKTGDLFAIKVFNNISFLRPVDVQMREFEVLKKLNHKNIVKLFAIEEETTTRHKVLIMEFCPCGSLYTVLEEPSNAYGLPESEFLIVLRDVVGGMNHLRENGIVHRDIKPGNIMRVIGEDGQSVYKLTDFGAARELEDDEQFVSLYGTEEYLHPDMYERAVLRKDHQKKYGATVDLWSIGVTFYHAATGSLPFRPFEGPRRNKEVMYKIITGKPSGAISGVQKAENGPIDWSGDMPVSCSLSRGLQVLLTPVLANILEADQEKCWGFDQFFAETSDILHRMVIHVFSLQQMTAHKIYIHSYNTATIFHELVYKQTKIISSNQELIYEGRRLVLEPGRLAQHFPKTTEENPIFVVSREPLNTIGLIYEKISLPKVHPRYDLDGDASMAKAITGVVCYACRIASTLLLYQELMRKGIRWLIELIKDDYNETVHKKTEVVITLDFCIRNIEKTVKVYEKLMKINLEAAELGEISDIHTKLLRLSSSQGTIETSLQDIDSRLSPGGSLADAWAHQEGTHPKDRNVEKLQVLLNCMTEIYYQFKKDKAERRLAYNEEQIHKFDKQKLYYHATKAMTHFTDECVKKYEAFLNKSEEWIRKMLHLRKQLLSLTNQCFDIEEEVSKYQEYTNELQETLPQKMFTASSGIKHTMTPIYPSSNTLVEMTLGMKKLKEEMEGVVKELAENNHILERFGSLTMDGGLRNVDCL
Experimental: as §1, §2

PRKCQ-PMA = molecular target: T21, PRKCQ-PMA (Homo sapiens, UniProt Q04759); details: 100% no effect, 0% complete tracer displacement, read-out: Tracer bound
T21 construct: Full-length kinase ORF (Promega, Madison, WI, USA) cloned in frame with a NanoLuc-vector was transfected into HEK293T cells; host or cells: HEK293T
Experimental: as §1, §2

MUSK = molecular target: T22, MUSK (Homo sapiens, UniProt O15146); details: 100% no effect, 0% complete tracer displacement, read-out: Tracer bound
T22 construct: Full-length kinase ORF (Promega, Madison, WI, USA) cloned in frame with a NanoLuc-vector was transfected into HEK293T cells; host or cells: HEK293T
Experimental: as §1, §2

CDK18-CCNY = molecular target: T23, CDK18-CCNY (Homo sapiens, UniProt Q07002); details: 100% no effect, 0% complete tracer displacement, read-out: Tracer bound
T23 construct: Full-length kinase ORF (Promega, Madison, WI, USA) cloned in frame with a NanoLuc-vector was transfected into HEK293T cells; host or cells: HEK293T
Experimental: as §1, §2

CDK17-CCNY = molecular target: T24, CDK17-CCNY (Homo sapiens, UniProt Q00537); details: 100% no effect, 0% complete tracer displacement, read-out: Tracer bound
T24 construct: Full-length kinase ORF (Promega, Madison, WI, USA) cloned in frame with a NanoLuc-vector was transfected into HEK293T cells; host or cells: HEK293T
Experimental: as §1, §2

CHEK2 = molecular target: T25, CHEK2 (Homo sapiens, UniProt O96017); details: 100% no effect, 0% complete tracer displacement, read-out: Tracer bound
T25 construct: Full-length kinase ORF (Promega, Madison, WI, USA) cloned in frame with a NanoLuc-vector was transfected into HEK293T cells; host or cells: HEK293T
Experimental: as §1, §2

TNNI3K = molecular target: T26, TNNI3K (Homo sapiens, UniProt Q59H18); details: 100% no effect, 0% complete tracer displacement, read-out: Tracer bound
T26 construct: Full-length kinase ORF (Promega, Madison, WI, USA) cloned in frame with a NanoLuc-vector; host or cells: HEK293T
Experimental: as §1, §2

TEK = molecular target: T27, TEK (Homo sapiens, UniProt Q02763); details: 100% no effect, 0% complete tracer displacement, read-out: Tracer bound
T27 construct: Full-length kinase ORF (Promega, Madison, WI, USA) cloned in frame with a NanoLuc-vector was transfected into HEK293T cells; host or cells: HEK293T
Experimental: as §1, §2

NEK3 = molecular target: T28, NEK3 (Homo sapiens, UniProt P51956); details: 100% no effect, 0% complete tracer displacement, read-out: Tracer bound
T28 construct: Full-length kinase ORF (Promega, Madison, WI, USA) cloned in frame with a NanoLuc-vector was transfected into HEK293T cells; host or cells: HEK293T
Experimental: as §1, §2

PRKACB = molecular target: T29, PRKACB (Homo sapiens, UniProt P22694); details: 100% no effect, 0% complete tracer displacement, read-out: Tracer bound
T29 construct: Full-length kinase ORF (Promega, Madison, WI, USA) cloned in frame with a NanoLuc-vector was transfected into HEK293T cells; host or cells: HEK293T
Experimental: as §1, §2

PRKAA1 = molecular target: T30, PRKAA1 (Homo sapiens, UniProt Q13131); details: 100% no effect, 0% complete tracer displacement, read-out: Tracer bound
T30 construct: Full-length kinase ORF (Promega, Madison, WI, USA) cloned in frame with a NanoLuc-vector was transfected into HEK293T cells; host or cells: HEK293T
Experimental: as §1, §2

- remaining activity at 1 µM (AURKA): 120%
- Tracer bound (NUAK1): 120.0%
- remaining activity at 1 µM (MAP4K5): 96.3%
- remaining activity at 1 µM (MLTK): 15.3%
- Tracer bound (BTK): 120.0%
- Tracer bound (CDK14-CCNY): 42.0%
- remaining activity at 1 µM (TNK2): 116%
- Tracer bound (MAP4K3): 102.6%
- Tracer bound (IRAK4): 94.3%
- remaining activity at 1 µM (PAK6): 116%
- remaining activity at 1 µM (PRKAA2): 109%
- remaining activity at 1 µM (CSNK2A2): 110%
- remaining activity at 1 µM (CDK20-CCNH): 93.3%
- remaining activity at 1 µM (MAP4K2): 107%
- Tracer bound (CDK3-CCNE1): 81.0%
- remaining activity at 1 µM (RPS6KA1): 108%
- remaining activity at 1 µM (RIOK2): 109%
- remaining activity at 1 µM (STK38L): 90%
- Tracer bound (STK4): 98.8%
- remaining activity at 1 µM (TBK1): 107%
- remaining activity at 1 µM (PRKCQ-PMA): 108%
- remaining activity at 1 µM (MUSK): 6%
- remaining activity at 1 µM (CDK18-CCNY): 28.6%
- remaining activity at 1 µM (CDK17-CCNY): 13.9%
- remaining activity at 1 µM (CHEK2): 119%
- remaining activity at 1 µM (TNNI3K): 15.1%
- remaining activity at 1 µM (TEK): 12.6%
- remaining activity at 1 µM (NEK3): 120%
- remaining activity at 1 µM (PRKACB): 99.6%
- remaining activity at 1 µM (PRKAA1): 114%
SMILES: CNC(=O)c1cc(Oc2ccc(NC(=O)Nc3cc(C(C)(C)C)on3)cc2)ccn1 [MA68, reference compound]
